Consider 76 compounds from ChEMBL document CHEMBL3988442, “University of Dundee, Small-Polar-MMV Screening Library” (2021).

The nature of assay [1]: microbe, parasite or virus in culture. The conditions noted are these: Mycobacterium tuberculosis, 72 h, read-out: pIC50 (converted).
A short description of assay [2]: microbe, parasite or virus in culture. The conditions noted are these: Mycobacterium tuberculosis, 96 h, read-out: pIC50 (converted).

Some results are limits rather than exact numbers.

Turning to `Cc1cnc(NC(=O)c2cccc(CN(C)Cc3ccno3)c2)s1`, the values for the IC50 in assay [1] and in assay [2] were 36.1 µM and 37.3 µM, respectively.
In the case of `Cc1ccc(C)c(-n2cc(CN3CC[C@@H](O)C3)c(-c3ccccc3)n2)c1`, the IC50 in assay [1] was 27.1 µM; in assay [2], greater than 50.1 µM.
In the same order, the values of `COc1ccc(-c2cccc(-c3ccn(CCN(C)C)n3)c2)nn1` are 19.9 µM and 16.3 µM.
`Cc1nc(NCCSc2cnn[nH]2)c2c(C)noc2n1`: the IC50 in assay [1] and in assay [2] was greater than 50.1 µM throughout.
Consider `O=C(O)[C@@H]1CN(C(=O)NCC2CCCCC2)C[C@H]1c1ccccn1`, for which the IC50 in assay [1] and in assay [2] was greater than 50.1 µM throughout.
In the case of `O=C1CCC2(CCN(Cc3cscn3)CC2)CN1CCCO`, the IC50 in assay [1] and in assay [2] was greater than 50.1 µM each time.
As for `Cc1cn(Cc2nc(CC(C)C)nn2-c2ccccn2)c(=O)[nH]c1=O`, the IC50 in assay [1] and in assay [2] was greater than 50.1 µM in each case.
For `O=C1NCC2(CCCN(C(=O)c3c[nH]nc3-c3cccs3)C2)O1` (configuration not stated), the IC50 in assay [1] and in assay [2] was greater than 50.1 µM each time.
Take `N[C@H]1CCCN(S(=O)(=O)c2ccc(C(=O)NCC(F)F)cc2)C1`: the IC50 in assay [1] and in assay [2] was greater than 50.1 µM each time.
For `Cc1cc(CN2CCCC2)cc(Oc2ccc3c(c2)CC(CN)O3)c1` (configuration not stated), the IC50 in assay [1] and in assay [2] was greater than 50.1 µM in each case.
For `CSCCC1c2nc[nH]c2CCN1Cc1[nH]c2ccc(F)cc2c1C` (configuration not stated), the IC50 in assay [1] and in assay [2] was greater than 50.1 µM in each case.
Regarding `CCCc1cncnc1N1CCC(NCc2cc3ccccc3[nH]2)CC1`, the IC50 in assay [1] and in assay [2] was 18.3 µM throughout.
As to `COC(=O)c1cc(C)nc(N2CCN(Cc3cc(C(C)C)no3)CC2)n1`, the IC50 in assay [1] and in assay [2] was greater than 50.1 µM each time.
`Cc1ccc(N2CCN(C(=O)CCC(F)(F)F)C(C)C2)cc1` (configuration not stated): the IC50 in assay [1] and in assay [2] was greater than 50.1 µM each time.
For `Cc1nc2c(c(N3CCC(CCn4cccn4)CC3)n1)CCNCC2`, the IC50 in assay [1] and in assay [2] was greater than 50.1 µM throughout.
As for `CCCc1ccc2oc(C(=O)N3CCN(CCOC)CC3)c(C)c2c1`, the IC50 in assay [1] was 4.94 µM; in assay [2] it was 4.11 µM.
The matching figures for `C=Cc1ccc(CN2C(=O)C3(CCNCC3)Nc3ccccc32)cc1`: 28.2 µM and 26.5 µM.
In the same order, the values of `O=S(=O)(NCCNc1ccc(-n2cccn2)nn1)c1ccccc1` are 24.9 µM and 15.9 µM.
The matching figures for `CS(=O)(=O)CCC(=O)N1C[C@@H]2CC[C@H](C1)N(Cc1ccccc1)C2=O`: greater than 50.1 µM and greater than 50.1 µM.
As to `CCc1cc(CN(C)C(=O)c2cnon2)on1`, the IC50 in assay [1] and in assay [2] was greater than 50.1 µM each time.
`Cn1cc(CN2CC[C@@H]3[C@@H](CCC(=O)N3CCC3=CCCCC3)C2)cn1`: the IC50 in assay [1] and in assay [2] was greater than 50.1 µM in each case.
Regarding `O=C(c1cc[nH]n1)N1CCCC(c2cccc(-n3ccnc3)n2)C1` (configuration not stated), the IC50 in assay [1] and in assay [2] was greater than 50.1 µM in each case.
`Cc1nc(-c2cccc(C(=O)O)c2)cc(C2CCN(C(C)C)C2)n1` (configuration not stated): the IC50 in assay [1] and in assay [2] was greater than 50.1 µM throughout.
`Cc1ccc(-c2noc(CN3CC(n4cc(C)cn4)C3)n2)cc1`: the IC50 in assay [1] is 49.1 µM; in assay [2] it was 22.6 µM.
The matching figures for `NC(=O)c1cc(C2CCCN(C(=O)CCc3ccncc3)C2)n[nH]1` (configuration not stated): greater than 50.1 µM and greater than 50.1 µM.
In the same order, the values of `CNc1cc2c(nn1)CCN(C(=O)c1cccc3c1OCCO3)C2` are greater than 50.1 µM and greater than 50.1 µM.
In the same order, the values of `O=C(NCc1ccco1)N1CCN(Cc2ccc3c(c2)CCO3)CC1` are 11.4 µM and 5.53 µM.
Consider `CCc1nnc2n1CCN(C(=O)CN(CC)CC)C2`, for which the IC50 in assay [1] and in assay [2] was greater than 50.1 µM each time.
`Cc1ccc(C(=O)N2CCCC(c3cc(C(F)(F)F)[nH]n3)C2)o1` (configuration not stated): the IC50 was 15.4 µM in assay [1] and 26.2 µM in assay [2].
The matching figures for `Cn1c(C2CC2)nc2c1CCN(Cc1nc(-c3ccsc3)no1)C2`: 16.2 µM and greater than 50.1 µM.
For the compound `CCc1nc(C2CCCN(C(=O)c3ccccc3Cl)C2)no1` (configuration not stated), the IC50 in assay [1] is 23.9 µM; in assay [2], greater than 50.1 µM.
As to `CC(C)c1noc(CN2CCN(C(=O)c3ccc(F)cc3)CC2)n1`, the IC50 in assay [1] and in assay [2] was greater than 50.1 µM throughout.
`O=C(c1cc(C2CC2)[nH]n1)N1CCN(Cc2ccc3c(c2)OCO3)CC1`: the figures for the IC50 in assay [1] and in assay [2] were 9.81 µM and 10.3 µM, respectively.
As for `Cc1ccc(NC2CCN(C(=O)C(C)n3cncn3)CC2)nn1` (configuration not stated), the IC50 in assay [1] and in assay [2] was greater than 50.1 µM in each case.
For `CCc1nnc2n1CCN(C(C(=O)NC1CC1)c1ccccc1)C2` (configuration not stated), the IC50 in assay [1] and in assay [2] was greater than 50.1 µM in each case.
For the compound `CSCc1ccc(C(=O)NCCCNc2ccc(C(F)(F)F)cn2)cc1`, the IC50 in assay [1] and in assay [2] was greater than 50.1 µM each time.
For the compound `CC(=O)NCc1ccc(C(=O)NC2CCc3nc(C)cn3C2)o1` (configuration not stated), the IC50 in assay [1] and in assay [2] was greater than 50.1 µM throughout.
Consider `COCC(=O)NC(C)Cc1cccc(Cl)c1` (configuration not stated), for which the IC50 in assay [1] is 11.2 µM; in assay [2], 18.5 µM.
As for `Fc1ccccc1-c1nc(CNCCn2cccn2)cs1`, the IC50 in assay [1] and in assay [2] was greater than 50.1 µM in each case.
`Cc1ccc(-c2nc(CNC(C)Cn3cccn3)cs2)o1` (configuration not stated): the IC50 in assay [1] and in assay [2] was greater than 50.1 µM throughout.
Take `Cc1nc(C2CCCN(C(=O)c3cc4c(s3)CCCC4)C2)no1` (configuration not stated): the IC50 in assay [1] was 40.8 µM; in assay [2] it was 11.7 µM.
In the same order, the values of `Cc1cnn(CC2CCCN2Cc2ncc(-c3ccc(F)cc3)o2)c1` (configuration not stated) are 27 µM and greater than 50.1 µM.
The matching figures for `CC(C)(C)c1nc(CN2CCC(c3ccnn3CCO)CC2)no1`: greater than 50.1 µM and greater than 50.1 µM.
For `CN(Cc1nc2ccccc2o1)C1CCCN(c2cccnn2)C1` (configuration not stated), the IC50 in assay [1] and in assay [2] was greater than 50.1 µM throughout.
Take `CCc1nc(CN(C)C2CCN(CCC(=O)N3CCCCC3)C2)no1` (configuration not stated): the IC50 in assay [1] and in assay [2] was greater than 50.1 µM throughout.
`CC(C)OCc1cccc(CNc2cnn(C)c(=O)c2Cl)c1`: the values for the IC50 in assay [1] and in assay [2] were 19.1 µM and 5.63 µM, respectively.
The matching figures for `COCCN1CCC(CNCc2c[nH]nc2C(C)(C)C)CC1`: 39.9 µM and greater than 50.1 µM.
Turning to `Cc1cnn(CC2CN(Cc3nc4ccccc4s3)CCO2)c1` (configuration not stated), the IC50 is 34.7 µM in assay [1] and 14.7 µM in assay [2].
In the same order, the values of `CN(Cc1nnc2n1CCC2)C(=O)c1ccc2c(c1)OCCCO2` are greater than 50.1 µM and greater than 50.1 µM.
As for `Cc1csc(N2CCN(C(=O)c3ccc(C)s3)CC2)n1`, the IC50 was greater than 50.1 µM in assay [1] and 15.5 µM in assay [2].
In the case of `COc1ccc(COCC(=O)N2CCCC(n3cncn3)C2)cc1` (configuration not stated), the IC50 in assay [1] and in assay [2] was greater than 50.1 µM in each case.
Turning to `CCn1ccnc1CN1CCCC1Cn1cc(C)cn1` (configuration not stated), the IC50 in assay [1] is 46.3 µM; in assay [2] it was greater than 50.1 µM.
For `Cc1nc(C2CCCN(C(=O)c3ccc(S(C)(=O)=O)cc3)C2)no1` (configuration not stated), the IC50 in assay [1] and in assay [2] was greater than 50.1 µM in each case.
With `O=C(NCCNc1ccc(C(F)(F)F)cn1)c1ccc(Cl)cc1F`, the IC50 was 25.1 µM in assay [1] and 19.3 µM in assay [2].
The matching figures for `CC(CCc1ccco1)NC(=O)Nc1cc(C(F)(F)F)c[nH]c1=O` (configuration not stated): 15.9 µM and 43.3 µM.
In the same order, the values of `O=C(NCC1CC1)N1CCN(Cc2ccc3c(c2)OCCO3)CC1` are 45.6 µM and 17.9 µM.
As for `Cc1nccn1C1CCCN(C(=O)c2ccc(N3CCCC3)nn2)C1` (configuration not stated), the IC50 in assay [1] and in assay [2] was greater than 50.1 µM in each case.
`N#CC1(C(=O)NCCCNc2ccc(C(F)(F)F)cn2)CCCC1`: the IC50 was 0.198 µM in assay [1] and 1.69 µM in assay [2].
Take `COc1cc(C(=O)Nc2nc(C)no2)ccc1C`: the IC50 in assay [1] and in assay [2] was greater than 50.1 µM each time.
For the compound `CCc1c(C(=O)NCC(=O)OCC2CC2)cnn1-c1ccc(C)cc1`, the IC50 in assay [1] was 45.9 µM; in assay [2] it was 18.9 µM.
As to `NC(=O)NC(=O)CCN1CCCN(c2nccs2)CC1`, the IC50 in assay [1] was 35.5 µM; in assay [2], 25.1 µM.
The matching figures for `CCOCCN1CCn2c(C)nnc2C1`: greater than 50.1 µM and greater than 50.1 µM.
In the same order, the values of `Cc1cnn(C2CCCN(C(=O)c3ccnc(N(C)C)c3)C2)c1` (configuration not stated) are greater than 50.1 µM and greater than 50.1 µM.
In the case of `CC(Cn1cccn1)NCc1csc(-c2ccccc2F)n1` (configuration not stated), the results for the IC50 in assay [1] and in assay [2] were 10.4 µM and 4.59 µM, respectively.
The matching figures for `OCC1CCCN1c1cc(N2CCC(OC3CCCC3)CC2)ncn1` (configuration not stated): 15.5 µM and 13.8 µM.
The matching figures for `CC(C)c1nccn1C1CCCN(C(=O)c2ccc3[nH]nnc3c2)C1` (configuration not stated): greater than 50.1 µM and greater than 50.1 µM.
The matching figures for `CC(C)c1nnc2n1CCN(C(=O)c1ccc(-n3cnnc3)cc1)C2`: greater than 50.1 µM and greater than 50.1 µM.
In the case of `O=C(Cc1ccc(-n2cccn2)cc1)N1CCCC(n2cccn2)C1` (configuration not stated), the IC50 in assay [1] and in assay [2] was greater than 50.1 µM each time.
Turning to `O=C(Cc1ccc2c(c1)OCCO2)N1CCCC(n2ccnc2)C1` (configuration not stated), the IC50 in assay [1] and in assay [2] was greater than 50.1 µM in each case.
As for `CCN1CCC(CNCc2c[nH]nc2C(C)(C)C)C1` (configuration not stated), the IC50 in assay [1] is greater than 50.1 µM; in assay [2], 16.4 µM.
In the same order, the values of `C=C(C)Cn1c(S(C)(=O)=O)nc2ccccc21` are 135 µM and greater than 501 µM.
In the same order, the values of `COc1ccccc1OCC(C)CN` (configuration not stated) are 82.9 µM and 123 µM.
For `O=C(NCC1CCN(C2CC2)C1)c1ccccc1F` (configuration not stated), the IC50 is 423 µM in assay [1] and 376 µM in assay [2].
The matching figures for `COCC(C)(CCO)NCC(=O)Nc1ccccc1I` (configuration not stated): 238 µM and greater than 501 µM.
Turning to `CN(C1CCCC1)S(=O)(=O)NCCNc1ccccn1`, the IC50 is 94.1 µM in assay [1] and 189 µM in assay [2].
In the same order, the values of `CN1CCCN(C(=O)COc2cccc(Cl)c2)CC1` are 283 µM and greater than 501 µM.
